From article PMC8160210, “Single tryptophan Y160W mutant of homooligomeric E. coli purine nucleoside phosphorylase implies that dimers forming the hexamer are functionally not equivalent” (Scientific Reports, 2021)
Read-outs that look alike come from different tables or passages of the source.

What was measured:
[1] = molecular target: T1, WT PNP/Pi complex (Escherichia coli, UniProt P0ABP8); assay: Thermophoretic (MST) titrations with formycin A; design: species or system E. coli; details: two-binding-site model, 50 mM phosphate, pH 7.6, 25 °C
T1 construct: made in house
Method: (§1) Measurements were performed with Monolith NT115 (NanoTemper). Enzyme was labelled with NT647 fluorescent dye (NanoTemper) according to the protocol provided by the manufacturer. Labelled proteins show fluorescence excitation and emission maxima of approximately 650 and 670 nm, respectively. The series of titrations were performed at a constant protein concentration. Both proteins (WT and mutant), and ligands were dissolved in 50 mM Tris/HCl pH 7.6 buffer, measurements were performed at 25 °C. […] In the pre-experiments, it was carefully checked for both proteins, WT and Y160W mutant whether any sign of aggregation or inactivation occurs, and if mutant behaviour is similar to that of the WT enzyme. An example of the raw thermophoretic curves obtained with the relative heating laser power at 60% and 80% are shown in the Supplementary Information (Figure S7).
(§2) Experiments of the nucleoside analogue binding were performed in the presence of saturating concentration of phosphate, i.e. 50 mM. For both, WT PNP and Y160W mutant seven repetitions of each curve were measured, for a single power of the heating laser. The power of the heating laser at which the strongest change of the thermophoretic signal upon ligand binding occurs was selected, namely 80% for both enzyme variants. The raw MST traces, for two highest tested laser powers, 60% and 80%, are presented in the Supplementary information (Figure S7) Protein concentration in the capillary was constant and equal to 0.215 μM and 0.0751 μM for the WT protein and the Y160W mutant, respectively. Series of titrations were analysed globally using the DynaFit4 program[40] (see below).
(§3) Three models were taken into account in analysis of binding curves: model with one (first equation below), two (first two equations) and three binding sites. P+L⇔PLwithKd1PL+L⇔PLLwithKd2PLL+L⇔PLLLwithKd3
(§4) The model with one binding site is based on the assumption that all monomers are equivalent, and there is no cooperation between them. In the model with two binding sites the basic functional unit of the protein is a dimer, possible non-equivalence of binding sites or cooperativity between active sites in the dimer are taken into account (in the case of no cooperativity dissociation constants should be related statistically: Kd2 = 4Kd1), the dimers within hexamer are equivalent. The model with three binding sites is based on the crystallographic structures of binary and ternary complexes of PNP with ligands, where two of the dimers are in the “open-closed” conformation, but the third dimer is symmetrical, in the “open-open” conformation. Thus, active sites in the open conformation belonging to “open-closed” and “open-open” dimer may not be equivalent. […]
(§5) Titration series were analysed globally, always starting from the simplest, one-binding-site model. […] For all tested models the Akaike information criterion[23] was also calculated. […] Analysed models were fitted to the raw data, whereas graphs presented in this study were prepared from the normalised data and the fitted curves. […] Responses are defined as changes in a measured physical quantity related to the formation of subsequent protein–ligand complexes: intrinsic protein fluorescence intensity, fluorescence intensity of the dye, heat and ellipticity for fluorimetric, thermophoretic, calorimetric and CD titrations, respectively. […]

[2] = molecular target: T2, Y160W mutant/Pi complex (Escherichia coli, UniProt P0ABP8, Y161W); assay: Thermophoretic (MST) titrations with formycin A; design: species or system E. coli
T2 construct: made in house; host or cells: E. coli DH5α-T1
T2 sequence (P0ABP8 2-239 Y161W, one chain of several): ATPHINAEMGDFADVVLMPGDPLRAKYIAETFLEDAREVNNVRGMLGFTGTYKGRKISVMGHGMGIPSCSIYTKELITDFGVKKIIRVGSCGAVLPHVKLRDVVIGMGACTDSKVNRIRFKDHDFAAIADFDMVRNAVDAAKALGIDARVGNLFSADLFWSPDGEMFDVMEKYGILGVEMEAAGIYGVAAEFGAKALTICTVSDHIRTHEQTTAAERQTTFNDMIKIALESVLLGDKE
Method: as §1, §2, §3, §4, §5

[3] = molecular target: T3, WT E. coli PNP (Escherichia coli, UniProt P0ABP8); assay: Thermophoretic (MST) titrations with phosphate; details: two-binding-site model, 25 °C
T3 construct: made in house
T3 sequence (P0ABP8 2-239 limits assumed): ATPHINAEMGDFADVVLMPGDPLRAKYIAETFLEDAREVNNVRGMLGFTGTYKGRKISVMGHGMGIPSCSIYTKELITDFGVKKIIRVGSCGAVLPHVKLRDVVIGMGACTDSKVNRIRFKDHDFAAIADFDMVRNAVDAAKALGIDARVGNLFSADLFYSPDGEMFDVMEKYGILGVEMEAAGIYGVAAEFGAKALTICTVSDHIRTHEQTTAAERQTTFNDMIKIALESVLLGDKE
Method: as §1, with “An example of the raw thermophoretic curves obtained with the relative heating laser power at 60% and 80% are shown in the Supplementary Information (Figure S7).” left out
For experiments of the binary complex formation with phosphate, curves were measured at four different powers of the heating laser. Two to five titrations at each heating power were measured, and curves were averaged for a particular heating power. […] This is an area inaccessible in fluorescence titration due to the quenching of the protein fluorescence at such a high ionic strength of the solution. […]
Titration series were analysed globally, always starting from the simplest, one-binding-site model. […] For all tested models the Akaike information criterion[23] was also calculated. […]

Structure (SMILES) | Kd ([1]; Kd1 ± SD) [µM] | Kd ([1]; Kd3 ± SD) [µM] | Kd ([2]; Kd1 ± SD, three-binding-site model, 50 mM phosphate, pH 7.6, 25 °C) [µM] | Kd ([2]; Kd3 ± SD, three-binding-site model, 50 mM phosphate, pH 7.6, 25 °C) [µM] | Kd ([2]; read-out: Kd2 ± SD, three-binding-site model, 50 mM phosphate, pH 7.6, 25 °C) [µM] | Kd ([3]; 50 mM Tris/HCl pH 7.6, read-out: Kd1 ± SD) [µM] | Kd ([3]; 50 mM Tris/HCl pH 7.6, read-out: Kd3 ± SD) [µM]
Nc1ncnc2c([C@@H]3O[C@H](CO)[C@@H](O)[C@H]3O)[nH]nc12 [FA, Formycin A] | 0.0107 | 186 | 0.137 | 1750 | 110 | – | –
O=P(O)(O)O [Pi, Orthophosphate] | – | – | – | – | – | 7 | 1640
